Source: patent publication EP4624471A1, “PKMYT1 INHIBITOR, PREPARATION METHOD THEREFOR, AND PHARMACEUTICAL COMPOSITION AND USE THEREOF” (Shanghai Qilu Pharmaceutical Research and Development …, priority 2022, dated 2024)

Assays:
[1] = molecular target: T1, PKMYT1 enzyme (Homo sapiens, UniProt Q99640); assay: PKMYT1 enzyme inhibition activity, ADP-GLO method; type: biochemical; settings: PKMYT1 enzyme 10 nM, ATP 5 µM, 37°C 90 minutes; read-out: ADP-GLO IC50
T1 construct: purchased Thermo Scientific A33387
T1 sequence (Q99640 1-499): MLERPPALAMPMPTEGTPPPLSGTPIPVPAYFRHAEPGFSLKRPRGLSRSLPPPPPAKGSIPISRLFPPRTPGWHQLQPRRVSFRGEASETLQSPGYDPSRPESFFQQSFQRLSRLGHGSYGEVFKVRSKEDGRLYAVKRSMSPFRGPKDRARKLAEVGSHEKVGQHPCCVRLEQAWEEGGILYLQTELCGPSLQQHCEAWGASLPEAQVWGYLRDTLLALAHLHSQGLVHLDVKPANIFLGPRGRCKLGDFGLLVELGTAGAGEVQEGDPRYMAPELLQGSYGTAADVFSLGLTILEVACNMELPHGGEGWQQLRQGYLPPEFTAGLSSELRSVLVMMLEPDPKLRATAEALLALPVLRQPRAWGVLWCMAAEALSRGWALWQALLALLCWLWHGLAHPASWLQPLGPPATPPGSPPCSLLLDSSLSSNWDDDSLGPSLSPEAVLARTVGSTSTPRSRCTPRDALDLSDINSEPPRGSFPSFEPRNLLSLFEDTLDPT
Experimental: Enzyme inhibition activity of compounds of the present disclosure
The enzyme activity of some of the example compounds was verified using the ADP-GLO method.
PKMYT1 enzyme protein was purchased from Thermo Scientific (Cat. No.: A33387), and the ADP-GLO kit was purchased from Promega (Cat. No.: V9103).
PKMYT1 enzyme activity reaction buffer: 70 mM HEPES, 3 mM MgCl2, 3 mM MnCl2, 50 µg mL-1PEG20000, 3 µM sodium orthovanadate, 1.2 mM DTT.
The reaction plate with the added compounds was centrifuged at 2500 rpm for 1 minute.
The prepared enzyme solution was added to the reaction plate, 5 µL per well, and the final concentration of enzyme was 10 nM. The reaction plate was centrifuged at 1000 rpm for 1 minute. The reaction plate was placed in an incubator at 37°C for 15 minutes.
The prepared ATP substrate solution was added to the reaction plate, 5 µL per well, and the final concentration of ATP was 5 µM. The reaction plate was centrifuged at 1000 rpm for 1 minute. After sealing the plate with aluminum foil, the plate was placed in an incubator and the reaction was carried out at 37°C for 90 minutes.
10 µL of ADP-glo™ reagent was added to stop the kinase reaction and consume unconsumed ATP, leaving only ADP and a very low ATP background. The reaction plate was centrifuged at 1000 rpm for 1 minute. After sealing the plate with aluminum foil, the reaction was carried out at room temperature for 60 minutes.
ADP was converted to ATP by adding 20 µL of kinase detection reagent, and luciferase and luciferin were introduced to detect ATP. The reaction plate was centrifuged at 1000 rpm for 1 minute. After sealing the plate with aluminum foil, the reaction was carried out at room temperature for 60 minutes.
The ADP-GLO luminescence signal values were read by the microplate reader PHERAstar, and the readings were analyzed.

[2] = test system: HCC1569 cells; assay: Cytostatic activity, CTG assay (HCC1569); type: cell-based; settings: 5 days
Experimental: Biological test example 2. Cytostatic activity of compounds of the present disclosure
CTG assay (HCC1569) was used to verify the biological activity of some of the example compounds of the present disclosure.
HCC1569 cells were purchased from ATCC (Cat. No.: CRL-2330) and cultured in a 37°C, 5% CO2 cell culture incubator. HCC1569 complete medium: RPMI-1640 liquid medium (Cat. No.: Gibico 11875-093), 20% FBS (Cat. No.: Gibico 10099-141), 1% Pen Strep (Cat. No.: Gibico 15070-063).
HCC1569 cells in a 75 cm^2 culture flask were digested with 2 mL of trypsin for 2-3 min, and then neutralized with 2 mL of 1640 complete medium. The mixture was centrifuged at 1200 rpm for 5 minutes. Cells were resuspended using 4 mL of 1640 complete medium. 500 µL of cell suspension was taken for cell counting using Vi-CELL-XR cell counter.
Using a Multidrop instrument, the HCC1569 cells were seeded in a 384-well plate at a density of 1000 cells per well (50 µL 1640 Growth Media) and administrated 24 hours later.
Using an ultra-micro pipette, the test compound (concentration: 3.33 mM, dissolved in DMSO) was diluted with 10 µM as the highest starting concentration, and then sequentially diluted in 10 gradients at a ratio of 1:3 (10000 nM, 3333 nM, 1111 nM, 370 nM, 123 nM, 41 nM, 13.7 nM, 4.6 nM, 1.5 nM, 0.5 nM) for administration treatment, with two duplicate wells for each concentration; 14 wells for positive and negative controls were set, with the positive control being the duplicate wells of 10 µM positive compound and the negative control being the duplicate wells of DMSO.
After the administration was completed, the cells were placed in a 37°C incubator for further culture for 5 days. After 5 days, 25 µL of CTG buffer was added to each well for CTG assay detection, and analyzed using a microplate reader. CTG readings were analyzed.
a = CTG value (highest concentration), b = CTG value (blank well), x = CTG value(test well).
IC50 was calculated using GraphPad PRISM 8.
Log10 (A compound concentration) was used for statistical calculation. (2) The data were input into GraphPad PRISM 8, and Analysis was selected. (3) Nonlinear regression (curve fit) was selected. (4) Log (inhibitor) vs. response-Variable slope was selected. (5) The calculation formula was selected, and the calculation was carried out according to the following formula: Y = Bottom + (Top-Bottom)/(1+10^((LogIC50-X)*HillSlope)), X: logarithm of dose or concentration, Y: response value, Top and Bottom: peak and bottom values. (6) The data were fitted to obtain IC50 values. (7) The fitting conditions were adjusted according to the specific data. Appropriate Constraint conditions were adjusted for Bottom, Top, and HillSlope. The curve that best fits the actual situation has been reached.

| Structure (SMILES) | IC50 [1] [nM] | IC50 [2] [nM] | IC50 ([2]; Homo sapiens, HCC1569, 120 h) [nM] | IC50 ([2]; Homo sapiens, 120 h) [nM] |
| --- | --- | --- | --- | --- |
| Cc1cc2c(C(N)=O)c(N)n(-c3c(C)c(O)cc(F)c3C)c2nc1C (atropisomer, axis not shown) [Example 21] | 4.13 | 20 |  |  |
| Cc1nc(C2CC2)c2c(C(N)=O)c(N)n(-c3c(C)ccc(O)c3C)c2n1 (atropisomer, axis not shown) [Example 62.2] | 14.4 |  | 60 |  |
| Cc1c(O)cc(F)c(C)c1-n1c(N)c(C(N)=O)c2cc(C(C)C)cnc21 (atropisomer, axis not shown) [Example 113.2] | 4.1 |  | 3 |  |
| Cc1c(O)cc(F)c(C)c1-n1c(N)c(C(N)=O)c2cc(-c3ccccc3)cnc21 (atropisomer, axis not shown) [Example 119.1] | 4.66 |  | 18 |  |
| CCc1cc2c(C(N)=O)c(N)n(-c3c(C)c(O)cc(F)c3C)c2nc1C (atropisomer, axis not shown) [Example 132.1] | 6.23 | 11 |  |  |
| CCc1cc2c(C(N)=O)c(N)n(-c3c(C)c(O)cc(F)c3C)c2nc1C (atropisomer, axis not shown) [Example 132] | 8.92 | 30 |  |  |
| C=C(C)c1cnc2c(c1)c(C(N)=O)c(N)n2-c1c(C)c(O)cc(F)c1C (atropisomer, axis not shown) [Example 133.1] | 2.43 | 12 |  |  |
| C=C(C)c1cnc2c(c1)c(C(N)=O)c(N)n2-c1c(C)c(O)cc(F)c1C (atropisomer, axis not shown) [Example 133] | 6.62 |  | 18 |  |
| Cc1cc(F)c(O)c(C)c1-n1c(N)c(C(N)=O)c2cc(C3CC3)c(C)nc21 (atropisomer, axis not shown) [Example 141] | 5.8 |  | 76 |  |
| C=Cc1cc2c(C(N)=O)c(N)n(-c3c(C)cc(F)c(O)c3C)c2nc1C (atropisomer, axis not shown) [Example 142] | 20.7 |  | 88 |  |
| Cc1cc(F)c(O)c(C)c1-n1c(N)c(C(N)=O)c2cc(C(C)C)c(C)nc21 (atropisomer, axis not shown) [Example 159.1] | 4.42 |  | 31 |  |
| Cc1cc(F)c(O)c(C)c1-n1c(N)c(C(N)=O)c2cc(N(C)C)c(C)nc21 (atropisomer, axis not shown) [Example 169.1] | 6.31 |  | 78 |  |
| Cc1cc(F)c(O)c(C)c1-n1c(N)c(C(N)=O)c2cc(C(C)C)cnc21 (atropisomer, axis not shown) [Example 170.2] | 10 |  | 80 |  |
| Cc1cc(F)c(O)c(C)c1-n1c(N)c(C(N)=O)c2cc(N3CCC3)c(C)nc21 (atropisomer, axis not shown) [Example 173.2] | 4.5 |  | 65 |  |
| Cc1cc(F)c(O)c(C)c1-n1c(N)c(C(N)=O)c2c3c(c(C)nc21)CCC3 (atropisomer, axis not shown) [Example 176.2] | 10.2 |  | 68 |  |
| Cc1nc2c(cc1Br)c(C(N)=O)c(N)n2-c1c(C)c(O)cc(F)c1C (racemic) [Example 104] | 3.21 |  | 15 |  |
| C=Cc1cc2c(C(N)=O)c(N)n(-c3c(C)c(O)cc(F)c3C)c2nc1C (racemic) [Example 111] | 3.57 |  | 13 |  |
| Cc1c(O)cc(F)c(C)c1-n1c(N)c(C(N)=O)c2cc(C(C)C)cnc21 (racemic) [Example 113] | 8.33 |  | 18 |  |
| Cc1c(O)cc(F)c(C)c1-n1c(N)c(C(N)=O)c2cc(-c3ccnn3C)cnc21 (racemic) [Example 118] | 4.1 |  | 65 |  |
| Cc1c(O)cc(F)c(C)c1-n1c(N)c(C(N)=O)c2cc(-c3ccccc3)cnc21 (racemic) [Example 119] | 15.2 |  | 44 |  |
| Cc1cc(F)c(O)c(C)c1-n1c(N)c(C(N)=O)c2cc(C(C)C)c(C)nc21 (racemic) [Example 159] | 15.1 |  | 56.2 |  |

| Structure (SMILES) | IC50 [1] [nM] | IC50 [2] [nM] | IC50 ([2]; Homo sapiens, HCC1569, 120 h) [nM] | IC50 ([2]; Homo sapiens, 120 h) [nM] |
| --- | --- | --- | --- | --- |
| Cc1cc(F)c(O)c(C)c1-n1c(N)c(C(N)=O)c2cc(C3CC3)c(C)nc21 (single isomer, unassigned) [Example 141.1] | 2.56 |  | 61 |  |
| Cc1cc2c(C(N)=O)c(N)n(-c3c(C)c(O)cc(F)c3C)c2nc1C [Example 20, 2-amino-1-(3-fluoro-5-hydroxy-2,6-dimethylphenyl)-5,6-dimethyl-1H-pyrrolo[2,3-b]pyridine-3-carboxamide] | 15.3 |  | 40 |  |
| Cc1cc(F)c(O)c(C)c1-n1c(N)c(C(N)=O)c2cc(Br)c(C)nc21 [Example 58, 2-Amino-5-bromo-1-(4-fluoro-3-hydroxy-2,6-dimethylphenyl)-6-methyl-1H-pyrrolo[2,3-b]pyridine-3-carboxamide] | 3.57 |  |  | 70 |
| Cc1c(O)cc(F)c(C)c1-n1c(N)c(C(N)=O)c2cc(C3CC3)cnc21 [Example 80] | 3.51 |  | 16 |  |
| Cc1c(O)cc(F)c(C)c1-n1c(N)c(C(N)=O)c2cc(Cl)cnc21 [Example 81] | 9.19 |  | 66 |  |
| Cc1c(O)cc(F)c(C)c1-n1c(N)c(C(N)=O)c2cc(Br)cnc21 [Example 99] | 9.68 |  | 40 |  |
| C#Cc1cnc2c(c1)c(C(N)=O)c(N)n2-c1c(C)c(O)cc(F)c1C [Example 101] | 6.8 |  | 94 |  |
| Cc1c(O)cc(F)c(C)c1-n1c(N)c(C(N)=O)c2cc(C3CCCCC3)cnc21 [Example 102] | 27.3 |  | 82 |  |
| Cc1nc2c(cc1F)c(C(N)=O)c(N)n2-c1c(C)c(O)cc(F)c1C [Example 105] | 2.43 |  | 54 |  |
| Cc1nc2c(cc1C1CC1)c(C(N)=O)c(N)n2-c1c(C)c(O)cc(F)c1C [Example 110] | 5.77 |  | 15 |  |
| Cc1nc2c(cc1C1CCCC1)c(C(N)=O)c(N)n2-c1c(C)c(O)cc(F)c1C [Example 112] | 33.8 |  | 18 |  |
| Cc1nc2c(cc1C1=CCCC1)c(C(N)=O)c(N)n2-c1c(C)c(O)cc(F)c1C [Example 116] | 25.9 |  | 28 |  |
| Cc1nc2c(cc1C(F)(F)F)c(C(N)=O)c(N)n2-c1c(C)c(O)cc(F)c1C [Example 120, 2-amino-1-(3-fluoro-5-hydroxy-2,6-dimethylphenyl)-6-methyl-5-(trifluoromethyl)-1H-pyrrolo[2,3-b]pyridine-3-carboxamide] | 9.09 |  |  | 14 |
| Cc1nc2c(cc1-c1ncco1)c(C(N)=O)c(N)n2-c1c(C)c(O)cc(F)c1C [Example 121] | 5.11 |  | 21 |  |
| C=Cc1nc2c(cc1C)c(C(N)=O)c(N)n2-c1c(C)c(O)cc(F)c1C [Example 122] | 8.71 |  | 28 |  |
| Cc1cc2c(C(N)=O)c(N)n(-c3c(C)c(O)cc(F)c3C)c2nc1-c1cccnc1 [Example 123] | 6.48 |  | 58 |  |
| Cc1nc2c(cc1-c1nccs1)c(C(N)=O)c(N)n2-c1c(C)c(O)cc(F)c1C [Example 127] | 9.17 |  | 14 |  |
| Cc1nc2c(cc1-c1cnn(C)c1)c(C(N)=O)c(N)n2-c1c(C)c(O)cc(F)c1C [Example 128] | 16.9 |  | 69 |  |
| Cc1nc2c(cc1-c1ccncc1)c(C(N)=O)c(N)n2-c1c(C)c(O)cc(F)c1C [Example 129] | 10.5 |  | 38 |  |
| Cc1nc2c(cc1-c1cccnc1)c(C(N)=O)c(N)n2-c1c(C)c(O)cc(F)c1C [Example 131] | 11.2 |  | 23 |  |
